The values that follow come from patent US8263643B2, “Polyphenol compounds with modulating neurotransmitter release” (Sungkyunkwan University Foundation for Corporate …, priority 2007, dated 2012).

Test [1] concerns the target T1, SNARE complex (SNAP25, SynH3, Vps) (UniProt P60879+P63045+Q16623).
T1 construct: SynH3 (AF217197); Vps (NM012663); made in house; host or cells: E. coli (Codon (+) RIL, Novagen)
Kind of test: SDS-PAGE analysis of SNARE complex formation. The format is biochemical. The settings on record: for Inhibition of SNARE complex formation (in words): FIG. 2, concentration series; for SNARE complex formation (%): control = 100, footnote: [phenolic compound]:SNAP-25 = 1:1, SNARE proteins 10 μM each, polyphenol 100 μM, room temperature 30 min; for Ratio for inhibition by 50% (IR50), SNARE complex formation: molar concentration ratio phenolic compound:SNAP-25, average of at least three measurements. As for the experimental part: A SNARE complex is strong enough so as not to be untwisted by SDS. On the basis of such a property, a SDS-PAGE analysis was performed in order to determine the formation of a SNARE complex. Polyphenol compounds used in the present Example were purchased from Sigma-Aldrich, Wako Chemical, and Extrasynthese.
In order to produce SNARE proteins, SNARE proteins, such as, SNAP25 (NM011428), syntaxin 1A (AF217197), VAMP2 (NM012663), SynH3 (AF217197), and Vps (NM012663), were purified in biologically transformed E. coli (Codon (+) RIL, Novagen).
Then, the materials were quickly mixed by a vortex, and were reacted at room temperature for 30 minutes. […]

Test [2] has as its target T2, membrane fusion caused by SNARE (SNAP25, syntaxin 1A, VAMP2) (UniProt P60879+P63045+Q16623).
T2 construct: made in house; host or cells: E. coli (Codon (+) RIL, Novagen)
Put plainly: Membrane fusion assay with SNARE-reconstituted liposomes (fluorescence). The format is biochemical. The settings on record: for remaining activity at 20 µM: read-out: Membrane fusion caused by SNARE (% of fusion without inhibitor); for Reduction of membrane fusion (in words): FIG. 3; for Ratio for inhibition by 50% (IR50), membrane fusion: molar concentration ratio phenolic compound:SNAP-25, average of at least three measurements. As for the experimental part: In order to produce SNARE proteins, SNARE proteins, such as SNAP25 (NM011428), syntaxin 1A (AF217197), and VAMP2 (NM012663), were purified in biologically transformed E. coli (Codon (+) RIL, Novagen).
In order to prepare liposome (fine membrane) marked with a fluorescent substance, POPC (62 mol %), DOPS (35 mol %), NBD-PS (1.5 mol %) and a fluorescent substance Rhodamin-PE (1.5 mol %) were mixed to obtain 10 mM of liposome (v-vesicle). Also, in order to prepare a liposome not marked with a fluorescent substance, DOPS and POPC were mixed in a molar concentration ratio of 35:65 to obtain 50 mM of liposome (t-vesicle). In order to prepare a complex of the purified SNAP25 and syntaxin 1a, the SNAP25 and the syntaxin 1a were mixed in a molar concentration ratio of 1:1, and then were reacted at room temperature for 1 hour. Then, the resultant mixture and the liposome not marked with a fluorescent substance were mixed in a molar ratio of 100:1. The VAMP2 and the liposome marked with a fluorescent substance were mixed in a molar ratio of 50:1. Then, each of the two kinds of liposomes was dialyzed by using 10 kDa dialyzing membrane through agitation at 4° C. for 24 hours, and the liposomes were mixed in a ratio of 3:7 (v-vesicle t-visicle). Next, fluorescence was measured by using a fluorometer (SpectraMax M2 manufactured by Molecular Device).
Herein, 100% indicates the degree of membrane fusion in the state where no inhibitor was added. As the value is smaller, the inhibiting degree is higher.

The subject of a further test is PC12 cell. Kind of test: Inhibition of [3H]-norepinephrine release from PC12 cells. The format is cell-based. The conditions noted are these: normal PC12 cells, FIG. 4. As for the experimental part: PC12 cells were cultured in a Ham's F12K medium where 10% […], 5% fetal bovine serum, and antibiotics were added in a collagen-coated plate (60 mm dish). In subculture, after sucking of the medium, 2 ml of PBS was added and cells were separated from a dish wall through pipetting. Then, centrifugation with 1,000×g for 5 minutes was carried out to obtain cells. A new medium was introduced, and a cell pellet was dispersed through pipetting and was loaded onto a new culture plate. And culture was carried out at 37° C. in a culture medium providing 5% CO2 gas. [^3H]-norepinephrine used for the experiment was purchased from Amersham. After sucking of the medium in the plate of PC12 cells, PBS was added and cells were separated from a plate wall. Then, the number of cells was measured by a hemacytometer, and the cells were dispersedly inoculated into a new medium at a concentration of 2×10^5 cell/ml. After 24 hours, a buffer solution ([^3H]—NE, 1.5 μCi/ml) for assay of norepinephrine was added, and then the cells were induced in a carbon dioxide incubator for 90 minutes. After the reaction, the buffer solution was removed and the cells were washed three times with PBS. Then, a new medium and each polyphenol compound were loaded and a reaction was performed for 30 minute. […]

[3] abbreviates: 20 μM phenolic compound, 100% = no inhibitor added.

T1 sequence (P60879 whole entry): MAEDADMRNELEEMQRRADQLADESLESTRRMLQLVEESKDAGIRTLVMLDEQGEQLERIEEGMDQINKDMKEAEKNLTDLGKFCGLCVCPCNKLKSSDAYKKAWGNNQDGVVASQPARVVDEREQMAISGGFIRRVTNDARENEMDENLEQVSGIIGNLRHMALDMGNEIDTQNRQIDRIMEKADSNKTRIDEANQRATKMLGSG
T1 sequence (Q16623 192-254 limits assumed): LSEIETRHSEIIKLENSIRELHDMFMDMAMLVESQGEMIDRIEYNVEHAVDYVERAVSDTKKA
T1 sequence (P63045 2-94 limits assumed): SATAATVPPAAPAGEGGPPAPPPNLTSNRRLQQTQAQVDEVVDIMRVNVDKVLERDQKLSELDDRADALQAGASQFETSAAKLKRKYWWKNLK
T2 sequence (P60879 whole entry, the tested form may be a part): as the sequence (P60879 whole entry) above
T2 sequence (Q16623 whole entry, the tested form may be a part): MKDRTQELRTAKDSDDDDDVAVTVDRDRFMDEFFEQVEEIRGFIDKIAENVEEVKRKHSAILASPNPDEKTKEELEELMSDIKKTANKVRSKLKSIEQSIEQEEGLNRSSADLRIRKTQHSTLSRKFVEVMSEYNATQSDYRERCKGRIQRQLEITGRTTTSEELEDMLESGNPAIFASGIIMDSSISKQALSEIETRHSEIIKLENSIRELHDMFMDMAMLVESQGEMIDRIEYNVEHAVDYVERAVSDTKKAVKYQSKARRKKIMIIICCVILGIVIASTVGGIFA
T2 sequence (P63045 whole entry, the tested form may be a part): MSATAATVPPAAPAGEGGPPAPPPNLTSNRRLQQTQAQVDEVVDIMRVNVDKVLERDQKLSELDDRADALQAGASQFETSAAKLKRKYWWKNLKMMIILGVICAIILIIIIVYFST

As to `O=c1c(O)c(-c2cc(O)c(O)c(O)c2)oc2cc(O)cc(O)c12` [Myricetin], in test [1], the “Inhibition of SNARE complex formation (in words)” value (shortened to “Inhibition … (in words)”) is “inhibit the formation of a SNARE complex by 50% at a low concentration”; the “SNARE complex formation (%)” value turned out to be 72.13 ± 10.13 %; the “Ratio for inhibition by 50% (IR50), SNARE complex formation” value came to 14.9. The remaining activity at 20 µM in test [2] (setting [3]) worked out at 43.9 ± 8.38%. In test [2], the “Reduction of membrane fusion (in words)” value was “can reduce membrane fusion” and the “Ratio for inhibition by 50% (IR50), membrane fusion” value is reported as 0.79. The “Norepinephrine release inhibiting effect (in words)” value in the test with PC12 cell is on record as “relatively high norepinephrine release inhibiting effects”.
With `O=C(O[C@@H]1Cc2c(O)cc(O)cc2O[C@@H]1c1cc(O)c(O)c(O)c1)c1cc(O)c(O)c(O)c1` [EGCG, Epigallocatechin gallate], in test [1], the “SNARE complex formation (%)” value came out at 112.38 ± 10.43%. Further, the “Membrane fusion caused by SNARE (% of fusion without inhibitor)” value in test [2] (setting [3]) is on record as 57.59 ± 3.39 %.
Consider `O=c1oc2c(O)c(O)cc3c(=O)oc4c(O)c(O)cc1c4c23` [Ellagic acid], for which, in test [1], the “Inhibition … (in words)” value was “inhibit the formation of a SNARE complex by 50% at a low concentration”; the “SNARE complex formation (%)” value is 87.54 ± 9.50 %; the “Ratio for inhibition by 50% (IR50), SNARE complex formation” value worked out at 27.8. Besides, the remaining activity at 20 µM in test [2] (setting [3]) was determined as 22 ± 2.05%. Further, in test [2], the “Reduction of membrane fusion (in words)” value is listed as “can reduce membrane fusion” and the “Ratio for inhibition by 50% (IR50), membrane fusion” value came out at 7.31.
Regarding `O=c1c(-c2ccc(O)cc2)coc2cc(O)ccc12` [Daidzein], the “SNARE complex formation (%)” value in test [1] is 104.06 ± 24.43%. Further, the remaining activity at 20 µM in test [2] (setting [3]) worked out at 113 ± 13.1%.
In the case of `O=c1cc(-c2ccccc2)oc2cc(O)cc(O)c12` [Chrysin], the “SNARE complex formation (%)” value in test [1] amounted to 98.12 ± 6.56%. Moreover, the remaining activity at 20 µM in test [2] (setting [3]) stood at 121 ± 1.27%.
On to `O=C(/C=C/c1ccc(O)c(O)c1)c1ccc(O)cc1O` [Butein], for which, in test [1], the “Inhibition … (in words)” value is reported as “inhibit the formation of a SNARE complex by 50% at a low concentration”; the “SNARE complex formation (%)” value is on record as 88.45 ± 7.09 %; the “Ratio for inhibition by 50% (IR50), SNARE complex formation” value stood at 30.5. In test [2] (setting [3]), the remaining activity at 20 µM was found to be 16.9 ± 2.98%. Moreover, in test [2], the “Reduction of membrane fusion (in words)” value is recorded as “can reduce membrane fusion” and the “Ratio for inhibition by 50% (IR50), membrane fusion” value is 0.81. Further, the “Norepinephrine release inhibiting effect (in words)” value in the test on PC12 cell is listed as “relatively high norepinephrine release inhibiting effects”.
In the case of `O=C(/C=C/c1ccc(O)c(O)c1)O[C@@H]1C[C@](O)(C(=O)O)C[C@@H](O)[C@H]1O` [Chlorogenic acid], the “SNARE complex formation (%)” value in test [1] was found to be 100.78 ± 13.62%. Further, in test [2] (setting [3]), the remaining activity at 20 µM turned out to be 134 ± 1.49%.
